Measured values published in US20260055081A1, “Metal Chelator Compounds, Coordination Complexes, and Methods of Preparation and Use Thereof” (University of Puerto Rico, priority 2022, published 2026).

Legend:
[1] = test system: CNS cancer cell lines; assay: NCI 60 five-dose screen, CNS panel; format: cell-based, human; conditions: 48 h
Description: (§1) National Cancer Institute Cancer Cell Line (NCI 60) Screen of DefNEtTrp. Details of the methodology for NCI 60 cell line screening are described at http://dtp.nci.nih.gov/branches/btb/ivclsp.html. The cells, grown in supplemented RPMI-1640 medium, are seeded in 96 well plates at an appropriate density and incubated for 24 h. The test compounds are dissolved in DMSO and incubated with cells at a single dose of 10.0 μM for 48 h. The assay is terminated by addition of cold trichloroacetic acid, and the cells are fixed and stained with sulforhodamine B. Bound stain is solubilized, and the absorbance is read on an automated plate reader. […] Using the seven absorbance measurements [time zero, […], control growth, (C), and test growth in the presence of drug at the five concentration levels (Tf)], the percentage growth was calculated at each of the drug concentrations levels as: [(Tf−Ti)/(C−Ti)]×100 for concentrations for which Tf≥Ti and [(Tf−Ti)/Ti]×100 for concentrations for which Tf<Ti. Three-dose response parameters (GI50, TGI, and LC50) were calculated for each of the experimental agents in five dose assay. […] The total growth inhibition (TGI) was calculated from Tf=Ti, which was the drug concentration resulting in total growth inhibition and signified the cytostatic effect. […]

[2] = test system: Prostate cancer cell lines; assay: NCI 60 five-dose screen, prostate panel; format: cell-based, human; conditions: 48 h
Description: as §1

[3] = test system: red blood cells; assay: CO-ADD hemolysis assay; format: cell-based, human; conditions: up to a concentration of 50.3 μM; human red blood cells, 1 h at 37° C.
Description: CO-ADD hemolysis assay. Dry compounds ranging from 1-2 mg were delivered to the CO-ADD. The compounds were solubilized to a stock concentration of 10 mg/mL in DMSO. Samples were serially diluted 1:2 fold in water to final testing concentrations of […] while keeping the final DMSO concentration to a maximum of 0.32% (v/v). Each sample concentration was prepared in polypropylene 384-well plates (Corning 3657) for hemolysis assays, all in two duplicate plates (n=2). All sample preparation was conducted using liquid handling robots. Human whole blood (Australian Red Cross) was washed three times with three volumes of 0.9% NaCl (w/v) and resuspended in a concentration of […], determined by manual cell count in a Neubauer hemocytometer. Washed cells were added to the compound-containing plates for a final volume of 50 μL. After a 10 min shake on a plate shaker the plates were then incubated for 1 h at 37° C. After incubation, the plates were centrifuged at 1000 g for 10 min to pellet cells and debris, 25 μL of the supernatant was then transferred to reading plates (384 well, polystyrene plated (PS), Corning CLS3680), with hemolysis determined by measuring the supernatant absorbance at […] (OD405) using a Tecan M1000 Pro monochromator plate reader. HC10 and HC50 (concentration at 10% and 50% hemolysis, respectively) were calculated by curve fitting the inhibition values vs. log(concentration) using a sigmoidal dose-response function with variable fitting values for the top, bottom, and slope. The maximal percentage of hemolysis is reported as Dmax. Hemolysis samples are classified by HC10≤32 μg/mL. […] Melittin was used in 8 concentrations in 2-fold serial dilutions with 50 µg/mL being the highest concentration.

[4] = test system: MRC-5 noncancer lung cell line; assay: MRC-5 cell viability (MTT assay); format: cell-based, human; conditions: concentration range examined, maximum 100 μM; 72 h
Description: MRC-5 cell viability studies. A thawed stock of MRC-5 cells was washed with 1×PBS and resuspended in phenol red DMEM media (supplemented with 10% FBS and 1% penicillin-streptomycin) and then seeded in a 100 mm×20 mm (complete, O.D.×H) petri dish and grown in a 5% (v/v) CO2 humidified atmosphere at 37° C. At least three passages were performed to ensure the integrity of the cells. After this point, cells were collected, thoroughly washed with 1×PBS, and then resuspended in phenol red-free DMEM (supplemented with 10% FBS, 1% penicillin-streptomycin, and 2.4 mM L-glutamine) at a 2.0×10^5 cells/mL concentration. A volume of 50 μL of cells was seeded into 96-well plates. Cells were incubated for 24 h. Stock solutions of DefNEtTrp were prepared fresh in DMF at concentrations of 20,000, 10,000, 5,000, 2,000, 1000, 200, 80, and 40 μM. The solutions were diluted 100-fold in 1×PBS to obtain a second set of stock solutions with 1% DMF(v/v). The MRC-5 cells were treated with 50 μL of DefNEtTrp compound solution from the second set of stock solutions to obtain final concentrations of 100, 50, 25, 10, 5, 1, 0.4, and 0.2 μM with 0.5% DMF (v/v). Control wells were the same type of controls as in the Jurkat cell work. Cells were incubated for 68 h and the MTT assay was performed exactly as described for the Jurkat cells.

[5] = test system: Melanoma cell lines; assay: NCI 60 five-dose screen, melanoma panel; format: cell-based, human; conditions: 48 h
Description: as §1

[6] = test system: NCI 60 human tumor cell lines; assay: NCI 60 cancer cell line screen, all cell lines tested; format: cell-based; conditions: 48 h
Description: National Cancer Institute Cancer Cell Line (NCI 60) Screen of DefNEtTrp. Details of the methodology for NCI 60 cell line screening are described at http://dtp.nci.nih.gov/branches/btb/ivclsp.html. The cells, grown in supplemented RPMI-1640 medium, are seeded in 96 well plates at an appropriate density and incubated for 24 h. The test compounds are dissolved in DMSO and incubated with cells at a single dose of 10.0 μM for 48 h. The assay is terminated by addition of cold trichloroacetic acid, and the cells are fixed and stained with sulforhodamine B. Bound stain is solubilized, and the absorbance is read on an automated plate reader. […] Using the seven absorbance measurements [time zero, […], control growth, (C), and test growth in the presence of drug at the five concentration levels (Tf)], the percentage growth was calculated at each of the drug concentrations levels as: [(Tf−Ti)/(C−Ti)]×100 for concentrations for which Tf≥Ti and [(Tf−Ti)/Ti]×100 for concentrations for which Tf<Ti. Three-dose response parameters (GI50, TGI, and LC50) were calculated for each of the experimental agents in five dose assay. Growth inhibition of 50% (GI50) was calculated from 100×[(Tf−Ti)/(C−Ti)]=50, which was the drug concentration resulting in a 50% reduction in the net protein increase (as measured by sulforhodamine B, SRB staining) in control cells during the drug incubation. The total growth inhibition (TGI) was calculated from Tf=Ti, which was the drug concentration resulting in total growth inhibition and signified the cytostatic effect. The 50% cellular death (LC50) was calculated from 100×[(Tf−Ti)/Ti]=−50, indicating a net loss of cells following treatment which indicated the concentration of drug resulting in a 50% reduction in the measured protein at the end of the drug treatment as compared to that at the beginning. […] Log GI50, log TGI, and log LC50 are the logarithm molar concentrations producing 50% growth inhibition (GI50), a total growth inhibition (TGI), and a 50% cellular death (LC50), respectively.

[7] = cell lines in which TGI was observed
[8] = Homo sapiens, read-out: GI50 (calculated average)

With Nc1cccnc1/C=N/NC(=S)NCCNC(=O)c1ccc(-n2nc(-c3ccccc3O)nc2-c2ccccc2O)cc1 [DefNEtTrp, deferasirox nitrogen ethyl triapine] the “TGI (calculated average)” value [1, 7] was 12.43 µM, the GI50 [1, 8] was 0.5 µM and the “TGI (calculated average)” value [2, 7] was 18.2 µM. For the same compound, the GI50 [2, 8] was 1.14 µM, the hemolysis [3] was about 5% and the “antiproliferative behavior against MRC-5” value [4] was “no antiproliferative behavior”. For the same compound, the “TGI (calculated average)” value [5, 7] was 4.73 µM, the GI50 [5, 8] was 0.61 µM and the GI50 ([6]; Homo sapiens, five-dose assay, average over all cell lines, read-out: average GI50 concentration, all cell lines) was 1.2 µM. For the same compound, the LC50 ([6]; Homo sapiens, five-dose assay, average over cell lines with 50% cell death) was 38.9 µM, the “share of cell lines tested with total cell growth inhibition” value ([6]; five-dose assay) was 77% and the “share of tested cell lines with 50% cell death” value ([6]; five-dose assay) was 14%. For the same compound, the “average TGI concentration” value ([6]; five-dose assay, average over cell lines in which TGI was observed) was 8.5 µM and the “antiproliferative activity in one-dose test” value ([6]; one-dose test of 10 μM) was “very promising broad spectrum antiproliferative activity”.
